What follows are compounds tested against T1, VEGFR/KDR (Homo sapiens, UniProt P35968) (assay: VEGFR/KDR kinase inhibition, DELFIA assay). Settings: ATP 0.6 uM (2x Km), enzyme 5 nM.
T1 construct: made in house; host or cells: Sf9 cells (Spodoptera frugiperda), baculovirus
Assay type: biochemical
In short: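 DELFIA time-resolved fluorescence readout using Europium-tagged anti-phosphotyrosine antibody after EDTA stop. Kinase reaction on plate-bound poly(Glu4,Tyr) ran 10-30 min at 30° C with 5 nM enzyme and 0.6 uM ATP (2× Km), following 4 min on-ice pre-incubation with compound; IC50 over a concentration range.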

T1 sequence (P35968 806-1356): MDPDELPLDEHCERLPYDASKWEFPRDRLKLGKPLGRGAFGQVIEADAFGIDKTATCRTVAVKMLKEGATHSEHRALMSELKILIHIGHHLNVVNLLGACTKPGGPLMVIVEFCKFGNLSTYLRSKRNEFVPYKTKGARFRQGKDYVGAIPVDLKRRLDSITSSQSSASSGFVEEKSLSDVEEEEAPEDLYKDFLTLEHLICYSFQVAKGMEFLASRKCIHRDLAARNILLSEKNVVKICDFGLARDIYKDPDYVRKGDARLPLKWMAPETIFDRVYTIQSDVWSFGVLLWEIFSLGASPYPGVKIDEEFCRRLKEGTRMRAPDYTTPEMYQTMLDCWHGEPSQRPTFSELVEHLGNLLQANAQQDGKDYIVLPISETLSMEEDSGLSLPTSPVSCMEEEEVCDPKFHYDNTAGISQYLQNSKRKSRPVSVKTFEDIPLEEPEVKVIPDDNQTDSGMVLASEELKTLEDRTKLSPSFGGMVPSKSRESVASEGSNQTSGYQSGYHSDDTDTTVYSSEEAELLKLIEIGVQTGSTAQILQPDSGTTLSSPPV

Row | Compound | IC50
1 | CN1CCN(CCNC(=O)c2cc3nccc(Oc4ccc(NC(=O)NC5CC5)cc4F)c3s2)CC1 [Compound 440] | ≥ 250 nM
2 | CN(C)[C@H]1CCN(C(=O)c2cc3nccc(Oc4ccc(NC(=O)NC5CC5)cc4F)c3s2)C1 [Compound 441] | < 50 nM
3 | CN(C)C(=O)c1cc2nccc(Oc3ccc(NC(=O)NC4CC4)cc3F)c2s1 [Compound 442] | < 50 nM
4 | CC(C)(C)C(=O)O[C@@H]1CCN(C(=O)c2cc3nccc(Oc4ccc(NC(=O)NC5CC5)cc4F)c3s2)C1 [Compound 443] | ≥ 250 nM
5 | CNC(=O)c1cc2nccc(Oc3ccc(NC(=O)NC4CC4)cc3F)c2s1 [Compound 444] | < 50 nM
6 | O=C(Nc1ccc(Oc2ccnc3cc(C(=O)N4CCCC4)sc23)c(F)c1)NC1CC1 [Compound 445] | < 50 nM
7 | O=C(Nc1ccc(Oc2ccnc3cc(C(=O)N4CCC4)sc23)c(F)c1)NC1CC1 [Compound 446] | < 50 nM
8 | O=C(Nc1ccc(Oc2ccnc3cc(C(=O)N4CCCCC4)sc23)c(F)c1)NC1CC1 [Compound 447] | < 50 nM
9 | CC(C)(C)C(=O)O[C@H]1CCN(C(=O)c2cc3nccc(Oc4ccc(NC(=O)NC5CC5)cc4F)c3s2)C1 [Compound 448] | 100 to 250 nM
10 | COC(=O)[C@@H]1CCCN1C(=O)c1cc2nccc(Oc3ccc(NC(=O)NC4CC4)cc3F)c2s1 [Compound 449] | < 50 nM
11 | O=C(Nc1ccc(Oc2ccnc3cc(C(=O)N4CCOCC4)sc23)c(F)c1)NC1CC1 [Compound 450] | < 50 nM
12 | CC(C)(C)C(=O)O[C@@H]1CCCN(C(=O)c2cc3nccc(Oc4ccc(NC(=O)NC5CC5)cc4F)c3s2)C1 [Compound 451] | ≥ 250 nM
13 | CC(=O)N[C@H]1CCN(C(=O)c2cc3nccc(Oc4ccc(NC(=O)NC5CC5)cc4F)c3s2)C1 [Compound 452] | < 50 nM
14 | CC(=O)N[C@@H]1CCN(C(=O)c2cc3nccc(Oc4ccc(NC(=O)NC5CC5)cc4F)c3s2)C1 [Compound 453] | < 50 nM
15 | CC(C)(C)C(=O)OC1CN(C(=O)c2cc3nccc(Oc4ccc(NC(=O)NC5CC5)cc4F)c3s2)C1 [Compound 454] | < 50 nM
16 | CC(C)(C)C(=O)OC1CCN(C(=O)c2cc3nccc(Oc4ccc(NC(=O)NC5CC5)cc4F)c3s2)CC1 [Compound 455] | 100 to 250 nM
17 | CCN(C(=O)OC(C)(C)C)[C@H]1CCN(C(=O)c2cc3nccc(Oc4ccc(NC(=O)NC5CC5)cc4F)c3s2)C1 [Compound 456] | < 50 nM
18 | CCOC(=O)C1CCN(C(=O)c2cc3nccc(Oc4ccc(NC(=O)NC5CC5)cc4F)c3s2)CC1 [Compound 457] | 50 to 100 nM
19 | CCOC(=O)C1CCCN(C(=O)c2cc3nccc(Oc4ccc(NC(=O)NC5CC5)cc4F)c3s2)C1 (stereo not drawn) [Compound 458] | 50 to 100 nM
20 | O=C(Nc1ccc(Oc2ccnc3cc(C(=O)N4CC[C@@H](O)C4)sc23)c(F)c1)NC1CC1 [Compound 460, (R)-1-cyclopropyl-3-(3-fluoro-4-(2-(3-hydroxypyrrolidine-1-carbonyl)thieno[3,2-b]pyridin-7-yloxy)phenyl)urea] | < 50 nM
21 | O=C(Nc1ccc(Oc2ccnc3cc(C(=O)N4CC[C@H](O)C4)sc23)c(F)c1)NC1CC1 [Compound 461, (S)-1-cyclopropyl-3-(3-fluoro-4-(2-(3-hydroxypyrrolidine-1-carbonyl)thieno[3,2-b]pyridin-7-yloxy)phenyl)urea] | < 50 nM

Row | Compound | IC50
22 | O=C(Nc1ccc(Oc2ccnc3cc(C(=O)N4CC(O)C4)sc23)c(F)c1)NC1CC1 [Compound 462] | < 50 nM
23 | O=C(Nc1ccc(Oc2ccnc3cc(C(=O)N4CCC[C@@H](O)C4)sc23)c(F)c1)NC1CC1 [Compound 463, (R)-1-cyclopropyl-3-(3-fluoro-4-(2-(3-hydroxypiperidine-1-carbonyl)thieno-[3,2-b]pyridine-7-yloxy)phenyl)urea] | 100 to 250 nM
24 | O=C(Nc1ccc(Oc2ccnc3cc(C(=O)N4CCC(C(=O)O)CC4)sc23)c(F)c1)NC1CC1 [Compound 465, 1-(7-(4-(3-cyclopropylureido)-2-fluorophenoxy)thieno[3,2-b]pyridine-2-carbonyl)piperidine-4-carboxylic acid] | 50 to 100 nM
25 | O=C(Nc1ccc(Oc2ccnc3cc(C(=O)N4CCCC(C(=O)O)C4)sc23)c(F)c1)NC1CC1 (stereo not drawn) [Compound 466, 1-(7-(4-(3-cyclopropylureido)-2-fluorophenoxy)thieno[3,2-b]pyridine-2-carbonyl)piperidine-3-carboxylic acid] | < 50 nM
26 | CC(=O)O[C@@H]1CCN(C(=O)c2cc3nccc(Oc4ccc(NC(=O)NC5CC5)cc4F)c3s2)C1 [Compound 467, (R)-1-(7-(4-(3-cyclopropylureido)-2-fluorophenoxy)thieno[3,2-b]pyridine-2-carbonyl)pyrrolidin-3-yl acetate] | < 50 nM
27 | CC(=O)O[C@H]1CCN(C(=O)c2cc3nccc(Oc4ccc(NC(=O)NC5CC5)cc4F)c3s2)C1 [Compound 468, (S)-1-(7-(4-(3-cyclopropylureido)-2-fluorophenoxy)thieno[3,2-b]pyridine-2-carbonyl)pyrrolidin-3-yl acetate] | < 50 nM
28 | CC(=O)OC1CN(C(=O)c2cc3nccc(Oc4ccc(NC(=O)NC5CC5)cc4F)c3s2)C1 [Compound 469, 1-(7-(4-(3-cyclopropylureido)-2-fluorophenoxy)thieno[3,2-b]pyridine-2-carbonyl)azetidin-3-yl acetate] | < 50 nM
29 | CN(C)CCNC(=O)C1CCN(C(=O)c2cc3nccc(Oc4ccc(NC(=O)NC5CC5)cc4F)c3s2)CC1 [Compound 471, 1-(7-(4-(3-cyclopropylureido)-2-fluorophenoxy)thieno[3,2-b]pyridine-2-carbonyl)-N-(2-(dimethylamino)ethyl)piperidine-4-carboxamide] | 50 to 100 nM
30 | CN1CCN(C(=O)C2CCN(C(=O)c3cc4nccc(Oc5ccc(NC(=O)NC6CC6)cc5F)c4s3)CC2)CC1 [Compound 472, 1-cyclopropyl-3-(3-fluoro-4-(2-(4-(4-methylpiperazine-l-carbonyl)piperidine-1-carbonyl)thieno[3,2-b]pyridin-7-yloxy)phenyl)urea] | 50 to 100 nM
31 | CN1CCN(C(=O)C2CCCN(C(=O)c3cc4nccc(Oc5ccc(NC(=O)NC6CC6)cc5F)c4s3)C2)CC1 (stereo not drawn) [Compound 473, 1-cyclopropyl-3-(3-fluoro-4-(2-(3-(4-methylpiperazine-1-carbonyl)piperidine-1-carbonyl)thieno[3,2-b]pyridin-7-yloxy)phenyl)urea] | < 50 nM
32 | CCOC(=O)C1CCCN(Cc2ccc(-c3cc4nccc(Oc5ccc(NC(=O)NC6CC6)cc5F)c4s3)nc2)C1 (stereo not drawn) [Compound 475, ethyl 1-((6-(7-(4-(3-cyclopropylureido)-2-fluorophenoxy)thieno[3,2-b]pyridin-2-yl)pyridino-yl)methyl)piperidine-3-carboxylate] | < 50 nM
33 | COC(=O)[C@@H]1CCCN1Cc1ccc(-c2cc3nccc(Oc4ccc(NC(=O)NC5CC5)cc4F)c3s2)nc1 [Compound 476] | < 50 nM
34 | O=C(Nc1ccc(Oc2ccnc3cc(-c4ccc(CN5CC(C(=O)O)C5)cn4)sc23)c(F)c1)NC1CC1 [Compound 477, 1-((6-(7-(4-(3-cyclopropylureido)-2-fluorophenoxy)thieno[3,2-b]pyridin-2-yl)pyridin-3-yl)methyl)azetidine-3-carboxylic acid] | < 50 nM
35 | COC(=O)C1CCN(Cc2ccc(-c3cc4nccc(Oc5ccc(NC(=O)NC6CC6)cc5F)c4s3)nc2)C1 (stereo not drawn) [Compound 478, methyl 1-((6-(7-(4-(3-cyclopropylureido)-2-fluorophenoxy)thieno[3,2-b]pyridin-2-yl)pyridin-3-yl)methyl)pyrrolidine-3-carboxylate] | < 50 nM
36 | CC(C)(C)OC(=O)N[C@H]1CCN(Cc2ccc(-c3cc4nccc(Oc5ccc(NC(=O)NC6CC6)cc5F)c4s3)nc2)C1 [Compound 480, (S)-tert-butyl 1-((6-(7-(4-(3-cyclopropylureido)-2-fluorophenoxy)thieno[3,2-b]pyridin-2-yl)pyridin-3-yl)methyl)pyrrolidin-3-ylcarbamate] | < 50 nM
37 | CC(C)(C)OC(=O)N[C@@H]1CCN(Cc2ccc(-c3cc4nccc(Oc5ccc(NC(=O)NC6CC6)cc5F)c4s3)nc2)C1 [Compound 481, (R)-tert-butyl 1-((6-(7-(4-(3-cyclopropylureido)-2-fluorophenoxy)thieno[3,2-b]pyridin-2-yl)pyridin-3-yl)methyl)pyrrolidin-3-ylcarbamate] | < 50 nM
38 | CN1CCN(C(=O)C2CCN(Cc3ccc(-c4cc5nccc(Oc6ccc(NC(=O)NC7CC7)cc6F)c5s4)nc3)CC2)CC1 [Compound 482, 1-cyclopropyl-3-(3-fluoro-4-(2-(5-((4-(4-methylpiperazine-1-carbonyl)piperidin-1-yl)methyl)pyridin-2-yl)thieno[3,2-b]pyridin-7-yloxy)phenyl)urea] | < 50 nM
39 | O=C(Nc1ccc(Oc2ccnc3cc(-c4ccc(CN5CCC(C(=O)NCCO)CC5)cn4)sc23)c(F)c1)NC1CC1 [Compound 483, 1-((6-(7-(4-(3-cyclopropylureido)-2-fluorophenoxy)thieno[3,2-b]pyridin-2-yl)pyridin-3-yl)methyl)-N-(2-hydroxyethyl)piperidine-4-carboxamide] | < 50 nM
40 | CN(CCO)C(=O)C1CCN(Cc2ccc(-c3cc4nccc(Oc5ccc(NC(=O)NC6CC6)cc5F)c4s3)nc2)CC1 [Compound 484] | < 50 nM
41 | O=C(Nc1ccc(Oc2ccnc3cc(-c4ccc(CN5CCC[C@H]5C(=O)NCCO)cn4)sc23)c(F)c1)NC1CC1 [Compound 485, (S)-1-((6-(7-(4-(3-cyclopropylureido)-2-fluorophenoxy)thieno[3,2-b]pyridin-2-yl)pyridin-3-yl)methyl)-N-(2-hydroxyethyl)pyrrolidine-2-carboxamide] | < 50 nM
42 | CN(CCO)C(=O)[C@@H]1CCCN1Cc1ccc(-c2cc3nccc(Oc4ccc(NC(=O)NC5CC5)cc4F)c3s2)nc1 [Compound 486, (S)-1-((6-(7-(4-(3-cyclopropylureido)-2-fluorophenoxy)thieno[3,2-b]pyridin-2-yl)pyridin-3-yl)methyl)-N-(2-hydroxyethyl)-N-methylpyrrolidine-2-carboxamide] | < 50 nM
